As to `CC(=O)C=Cc1ccc(C)cc1`, the logP (commonly a log measure of how a compound divides between an organic and an aqueous phase) is 2.65.

Turning to `COc1ccc(C=CC(=O)C(F)(F)F)cc1`, the logP was found to be 3.33. Next, `CC(=O)C=Cc1cccc(Br)c1`: 3.02; `CC(=O)C=Cc1cccc(C(F)(F)F)c1`: 3.03; `CC(=O)C=Cc1cccc(F)c1`: 2.25. In turn, `COc1cccc(C=CC(C)=O)c1` had a logP of 2.27. The compound `CC(=O)C=Cc1ccccc1Cl` yielded a logP of 2.85. Next, `O=C(C=Cc1cccc([N+](=O)[O-])c1)C(F)(F)F`: 2.66; `CC(=O)C=Cc1ccc(O)cc1`: 1.86.

Consider `COc1ccccc1C=CC(=O)C(F)(F)F`, for which the lipophilicity (logP) is 3.39. Take `CC(=O)C=Cc1ccc(F)cc1`: the logP was 2.22. In the case of `COc1ccccc1C=CC(C)=O`, the logP was 2.42. Next, `CC(=O)C=Cc1cccc([N+](=O)[O-])c1`: 1.88. The value for `O=C(C=Cc1ccccc1Cl)C(F)(F)F` was 3.5; that for `CCOc1ccc(C=CC(C)=O)cc1` was 2.73. As for `CC(=O)C=Cc1ccc(Cl)cc1`, the logP is 2.8. Compound `CC(=O)C=Cc1ccc(C#N)cc1` registered a lipophilicity (logP) of 1.64.

For the compound `CCc1ccc(C=CC(C)=O)cc1`, the logP was found to be 3.26. `O=C(C=Cc1ccccc1)C(F)(F)F`: the logP worked out at 3.01. In turn, `O=C(C=Cc1cccc(Cl)c1)C(F)(F)F` registered a logP of 3.58. Compound `CC(=O)C=Cc1cccc(C)c1` came in with a logP of 2.68. In turn, `N#Cc1ccc(C=CC(=O)C(F)(F)F)cc1` displayed a logP of 2.42. In turn, `CC(=O)C=Cc1cccc(Cl)c1` yielded a logP of 2.81. Compound `CC(=O)C=Cc1ccccc1O` registered a logP of 2.19. With `CC(=O)C=Cc1ccc(OC(C)=O)cc1`, the logP was determined as 1.63. In turn, `CC(=O)C=Cc1ccccc1F` came in with a logP of 2.34. The value for `CC(=O)C=Cc1ccc(C(F)(F)F)cc1` was 3.13.

`N#Cc1cccc(C=CC(=O)C(F)(F)F)c1` had a logP of 2.45.

As for `CC(=O)C=Cc1ccccc1C(F)(F)F`, the logP worked out at 3.14. Compound `O=C(C=Cc1ccc(Cl)cc1)C(F)(F)F` returned a logP of 3.63. The value for `CC(=O)C=Cc1ccc(N(C)C)cc1` was 2.66. On to `CC(=O)C=Cc1ccccc1C`, for which the logP came out at 2.6. The value for `COc1ccc(C=CC(C)=O)cc1` was 2.25; that for `COc1cccc(C=CC(=O)C(F)(F)F)c1` was 3.05. On to `CC(=O)C=Cc1ccc([N+](=O)[O-])cc1`, for which the logP stood at 1.9.

`CC(=O)C=Cc1cccc(C#N)c1` had a logP of 1.59. `CC(=O)C=Cc1ccc(Br)cc1` displayed a logP of 3.03.
